As usually defined, the AUC is the area under the concentration-time curve, a measure of exposure. One may read the Vdss as the apparent volume that relates the amount in the body to the concentration in plasma or blood. High values mean wide distribution into tissue, low ones little distribution into tissue. What is called bioavailability is the share of a dose that reaches the circulation, judged against a reference dose that is usually intravenous. A higher bioavailability goes with good availability. A word on the half-life: it is how long it takes for the measured level to halve. Low values mean fast loss, high ones slow loss. A word on the inhibition: it is the share of the control response that was lost under treatment. Usually Tmax stands for the time from dosing to the highest level. As a reminder, the Cmax is the highest concentration seen after dosing. A word on the ΔTm: it is the shift of the melting midpoint relative to a reference.

Series [1] is described as follows: AUC in ICR mouse at 1 mg/kg, iv measured upto 1440 mins by LC-MS/MS analysis. The format is ADME, organism-based. To be noted: in vivo, 24 h. More on the design: time < 1440 min, dose 1 mg/kg, route iv.
Series [2] can be described thus: Volume of distribution at steady state in ICR mouse at 1 mg/kg, iv measured upto 1440 mins by LC-MS/MS analysis. The format is ADME, organism-based. To be noted: in vivo, 24 h.
Series [3] in a line: Oral bioavailability in ICR mouse at 10 mg/kg measured upto 1440 mins by LC-MS/MS analysis. To be noted: in vivo. The format is ADME, organism-based.
Series [4] in a line: Half life in ICR mouse at 10 mg/kg, po measured upto 1440 mins by LC-MS/MS analysis. The format is ADME, organism-based. To be noted: in vivo.
Series [5] is described as follows: AUC in ICR mouse at 10 mg/kg, po measured upto 1440 mins by LC-MS/MS analysis. The format is ADME, organism-based. More on the design: time < 1440 min, dose 10 mg/kg, route po. To be noted: in vivo.
In series [6] the target is T1, Ubiquitin thioesterase OTUB1 (Homo sapiens, UniProt Q96FW1). Kind of series: Inhibition of OTUB1 in human NCI-H1975 cells assessed as reduction in UBE2N protein level at 500 nM measured for 24 hrs by immunoblotting analysis. The format is cell-based. In general terms: A western blot detects proteins with antibodies after separation by electrophoresis.
T1 sequence (Q96FW1 whole entry): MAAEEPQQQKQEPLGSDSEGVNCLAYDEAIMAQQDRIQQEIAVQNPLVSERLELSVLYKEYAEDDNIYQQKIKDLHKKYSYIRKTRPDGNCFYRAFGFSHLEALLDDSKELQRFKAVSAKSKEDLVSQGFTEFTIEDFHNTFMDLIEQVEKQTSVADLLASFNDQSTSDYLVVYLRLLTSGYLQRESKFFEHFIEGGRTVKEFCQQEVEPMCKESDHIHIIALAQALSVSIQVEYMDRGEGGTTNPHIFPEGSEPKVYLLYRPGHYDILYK
Series [7] is described as follows: Half life in ICR mouse at 1 mg/kg, iv measured upto 1440 mins by LC-MS/MS analysis. To be noted: in vivo, 24 h. The format is ADME, organism-based.
Series [8] in a line: Tmax in ICR mouse at 10 mg/kg, po measured upto 1440 mins by LC-MS/MS analysis. The format is ADME, organism-based. The following applies: in vivo.
The nature of series [9]: Cmax in ICR mouse at 10 mg/kg, po measured upto 1440 mins by LC-MS/MS analysis. To be noted: in vivo. The format is ADME, organism-based. More on the design: dose 10 mg/kg, time < 1440 min, route po.
The target in series [10] is T2, Ubiquitin carboxyl-terminal hydrolase 8 (Homo sapiens) (UniProt P40818).
T2 sequence (whole entry): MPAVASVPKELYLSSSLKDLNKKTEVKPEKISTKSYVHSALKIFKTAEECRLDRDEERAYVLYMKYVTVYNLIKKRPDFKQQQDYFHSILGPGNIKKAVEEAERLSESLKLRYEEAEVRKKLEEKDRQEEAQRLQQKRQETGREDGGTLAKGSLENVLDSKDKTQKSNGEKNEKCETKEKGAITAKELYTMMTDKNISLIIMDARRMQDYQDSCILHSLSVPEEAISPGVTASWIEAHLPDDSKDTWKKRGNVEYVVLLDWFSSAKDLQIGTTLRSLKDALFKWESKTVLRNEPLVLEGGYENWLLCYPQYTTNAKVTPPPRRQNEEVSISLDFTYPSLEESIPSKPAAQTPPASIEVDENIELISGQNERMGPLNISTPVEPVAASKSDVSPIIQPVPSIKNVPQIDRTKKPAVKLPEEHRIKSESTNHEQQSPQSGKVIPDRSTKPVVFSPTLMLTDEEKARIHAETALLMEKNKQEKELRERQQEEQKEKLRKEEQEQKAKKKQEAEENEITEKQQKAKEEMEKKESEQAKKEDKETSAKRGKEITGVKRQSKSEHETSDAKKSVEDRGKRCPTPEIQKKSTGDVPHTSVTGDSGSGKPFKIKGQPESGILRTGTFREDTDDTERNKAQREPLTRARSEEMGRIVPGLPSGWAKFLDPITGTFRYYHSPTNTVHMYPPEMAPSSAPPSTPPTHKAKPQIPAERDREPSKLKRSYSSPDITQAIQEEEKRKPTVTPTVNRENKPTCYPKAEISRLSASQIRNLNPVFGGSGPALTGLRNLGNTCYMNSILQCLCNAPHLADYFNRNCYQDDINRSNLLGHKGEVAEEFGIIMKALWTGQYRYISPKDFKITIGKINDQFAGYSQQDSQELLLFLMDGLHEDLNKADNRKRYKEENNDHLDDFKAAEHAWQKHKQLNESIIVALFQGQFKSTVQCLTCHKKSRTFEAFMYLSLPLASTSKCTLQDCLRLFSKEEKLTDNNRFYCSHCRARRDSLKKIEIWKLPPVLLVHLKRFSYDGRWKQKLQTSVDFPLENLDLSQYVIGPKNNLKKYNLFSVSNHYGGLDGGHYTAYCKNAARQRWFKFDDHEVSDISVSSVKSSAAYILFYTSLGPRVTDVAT
Briefly: Inhibition of USP8 in human NCI-H1975 cells assessed as reduction in EGFR protein level at 500 nM measured for 24 hrs by immunoblotting analysis. The format is cell-based.

The target in series [11] is T1, Ubiquitin thioesterase OTUB1. Briefly: Inhibition of N-terminal His-6 tagged OTUB1 (40 to 271 residues) (unknown origin) expressed in Escherichia coli BL21 (DE3) cells at […] using Ub-Rho measured after 0.5 to 3 hrs by fluorescence based Plate reader method relative to control. The following applies: dose 2.5 µM, time 0.5-3 hrs.
Series [12] shares this target. Briefly: Inhibition of OTUB1 in human NCI-H1975 cells assessed as reduction in protein level at 500 nM measured for 24 hrs by immunoblotting analysis. The format is cell-based.
The subject of series [13] is Mus musculus. Briefly: In vivo inhibition of USP8 in human NCI-H1975 cells xenografted BALB/c nude mouse model assessed as decrease in USP8 level at 15 mg/kg/day, po measured after 5 days by Western blot analysis. To be noted: time 5.0 day. The format is functional, organism-based. In general terms: In xenograft studies the graft and the host belong to different species.

Series [14] relates to NCI-H1975. Kind of series: Antitumor activity against human NCI-H1975 cells xenografted in BALB/c nude mouse model assessed as reduction of tumor burden at 5 mg/kg, ip qd for 2 weeks. The format is functional, organism-based.
Series [15] deals with NCI-H1975. Briefly: Antitumor activity against human NCI-H1975 cells xenografted in BALB/c nude mouse model assessed as reduction of total tumor weight at 5 mg/kg, ip bid for 2 weeks. The format is functional, organism-based.
Series [16] concerns the target T2, Ubiquitin carboxyl-terminal hydrolase 8 (Homo sapiens). Briefly: Destabilization of N-terminal His-6 tagged USP8 (734 to 1110 residues) (unknown origin) expressed in Escherichia coli BL21 (DE3) cells assessed as change in melting temperature at 200 uM measured for 2 hrs in presence of dithiothreitol by SYPRO orange dye based thermal shift assay.
Series [17] has the same target. Briefly: Inhibition of USP8 in human NCI-H1975 cells assessed as reduction in protein level at 500 nM measured for 24 hrs by immunoblotting analysis. The format is cell-based.
Series [18] has as its system Mus musculus. Kind of series: In vivo inhibition of USP8 in NCI-H1975 cells xenografted BALB/c nude mouse model assessed as decrease in EGFR level at 15 mg/kg/day, po measured after 5 days by Western blot analysis. The format is functional, organism-based. The following applies: time 5.0 day.
Series [19] deals with Mus musculus. Kind of series: In vivo inhibition of OTUB1 in human NCI-H1975 cells xenografted BALB/c nude mouse model assessed as decrease in OTUB1 level at 15 mg/kg/day, po measured after 5 days by Western blot analysis. The format is functional, organism-based. To be noted: time 5.0 day.
In series [20] the test system is NCI-H1975. Briefly: Antitumor activity against human NCI-H1975 cells xenografted in BALB/c nude mouse model assessed as reduction in tumor volume at 5 mg/kg, ip bid for 2 weeks. The format is functional, organism-based.
The subject of series [21] is Mus musculus. Briefly: In vivo inhibition of OTUB1 in NCI-H1975 cells xenografted BALB/c nude mouse model assessed as decrease in UBE2N level at 15 mg/kg/day, po measured after 5 days by Western blot analysis. The format is functional, organism-based. To be noted: time 5.0 day.

Active and inactive are the calls of the source. The rule behind the calls is not given here.

In series [1], `CN1CC[C@@H](Oc2ccc(Cl)c(-c3nc4c(o3)C(=O)c3ccccc3C4=O)c2)C1` came in with an AUC of 306 ng·h/mL. This compound returned a distribution volume (Vdss) in series [2] of 2.37 L/kg. In addition, the bioavailability in [3] was found to be 7.5%. Moreover, in [4], the half-life was 86.4 min. In series [5], this compound gave an AUC at 24 h of 229 ng·h/mL. Moreover, the inhibition entry in [6] and in [10] was “Active” each time. The compound further registered a t1/2 in series [7] of 51.6 min. Besides, the Tmax in series [8] was 19.8 min. The Cmax in [9] was 313 ng/mL.

With `O=C1c2ccccc2C(=O)c2oc(-c3cccnc3)nc21`, in series [11], the inhibition worked out at 100%.

Compound `CN1CC[C@@H](Oc2ccc(F)c(-c3nc4c(o3)C(=O)c3ccccc3C4=O)c2Cl)C1` showed an AUC in series [1] of 1345 ng·h/mL. Besides, the inhibition result in series [12], in series [17], in [6] and in series [10] was “Active” each time. In [2], the Vdss came out at 0.77 L/kg. In addition, the outcome in the series on Mus musculus [13], in the series on NCI-H1975 [14], in the series on NCI-H1975 [15], with Mus musculus [18], in the series on Mus musculus [19] and in the series on NCI-H1975 [20] was Active. The result in the series with Mus musculus [21] was Active. This compound also yielded a bioavailability in series [3] of 27.9%. Besides, the ΔTm in [16] is 2 °C. For the same compound, the half-life in series [4] was 105 min. Further, the AUC at 24 h in series [5] turned out to be 3750 ng·h/mL. This compound yielded a t1/2 in series [7] of 49.8 min. Further, the time to peak (Tmax) in series [8] came out at 19.8 min. Also, the highest level in series [9] (Cmax) was 4270 ng/mL.
